16 compounds from ChEMBL document CHEMBL4828721, “Substituted dienes prepared from betulinic acid - Synthesis, cytotoxicity, mechanism of action, and pharmacological parameters” (Eur J Med Chem, 2021) can be followed below.

One experiment deals with CCRF-CEM. The experiment can be described thus: Cytotoxicity against human CCRF-CEM cells assessed as reduction in cell viability measured after 72 hrs by MTS assay. Type of experiment: functional, cell-based. In general terms: Tetrazolium assays rely on reduction of a dye to a coloured formazan, in cell work by metabolically active cells.
A further experiment deals with CEM-DNR. As to the kind of experiment: Cytotoxicity against daunorubicin resistant human CEM-DNR cells assessed as reduction in cell viability measured after 72 hrs by MTS assay. Type of experiment: functional, cell-based.
The next experiment has as its system HCT-116. The experiment can be described thus: Cytotoxicity against human HCT-116 cells assessed as reduction in cell viability measured after 72 hrs by MTS assay. Particulars: HCT-116, 72 h. Type of experiment: functional, cell-based.
A short description of experiment [1]: Cytotoxicity against human HCT116 p53-null cells assessed as reduction in cell viability measured after 72 hrs by MTS assay. Type of experiment: functional, cell-based.
For a further experiment, the system named is K562. The experiment can be described thus: Cytotoxicity against human K562 cells assessed as reduction in cell viability measured after 72 hrs by MTS assay. Particulars: K562, 72 h. Type of experiment: functional, cell-based.
Experiment [2] in a line: Cytotoxicity against paclitaxel resistant human K562-Tax cells assessed as reduction in cell viability measured after 72 hrs by MTS assay. Type of experiment: functional, cell-based.
The test system of a further experiment is A549. As to the kind of experiment: Cytotoxicity against human A549 cells assessed as reduction in cell viability measured after 72 hrs by MTS assay. Particulars: A549, 72 h. Type of experiment: functional, cell-based.
The next experiment deals with U2OS. The experiment can be described thus: Cytotoxicity against human U2OS cells assessed as reduction in cell viability measured after 72 hrs by MTS assay. Type of experiment: functional, cell-based.
The next experiment concerns BJ. The experiment can be described thus: Cytotoxicity against human BJ cells assessed as reduction in cell viability measured after 72 hrs by MTS assay. Type of experiment: cell-based.
The next experiment has as its system MRC5. As to the kind of experiment: Cytotoxicity against human MRC5 cells assessed as reduction in cell viability measured after 72 hrs by MTS assay. As to conditions: MRC5, 72 h. Type of experiment: cell-based.

Take `C=C(/C=C/c1ccc(C(F)(F)F)cc1)[C@@H]1CC[C@]2(C(=O)O)CC[C@]3(C)[C@H](CC[C@@H]4[C@@]5(C)CC[C@H](O)C(C)(C)[C@@H]5CC[C@]43C)[C@@H]12`: the half-maximal inhibitory concentration (IC50) (in general, the concentration that gives 50% inhibition) stood at 21.5 µM in the experiment on CCRF-CEM; 40.9 µM in the experiment with CEM-DNR; 40.9 µM in the experiment on HCT-116; 31.9 µM in experiment [1]; 40.5 µM in the experiment on K562; 45.6 µM in experiment [2]. The IC50 in the experiment with A549 was 41.4 µM; in the experiment on U2OS, 28.2 µM; with BJ it was 49.5 µM; in the experiment on MRC5, 42.4 µM.
In the case of `C=C(/C=C/c1ccccc1I)[C@@H]1CC[C@]2(C(=O)O)CC[C@]3(C)[C@H](CC[C@@H]4[C@@]5(C)CC[C@H](O)C(C)(C)[C@@H]5CC[C@]43C)[C@@H]12`, the IC50 is 20.6 µM in the experiment with CCRF-CEM; over 50 µM in the experiment on CEM-DNR; 29.6 µM in the experiment with HCT-116; 29.5 µM in experiment [1]; 25.1 µM in the experiment with K562; over 50 µM in experiment [2]. In addition, the half-maximal inhibitory concentration (IC50) in the experiment with A549 is 29.7 µM; with U2OS, 28.5 µM; in the experiment on BJ, over 50 µM; with MRC5, 29.5 µM.
Regarding `C=C(/C=C/c1cccc(Br)c1)[C@@H]1CC[C@]2(C(=O)O)CC[C@]3(C)[C@H](CC[C@@H]4[C@@]5(C)CC[C@H](O)C(C)(C)[C@@H]5CC[C@]43C)[C@@H]12`, the IC50 in the experiment with CCRF-CEM was 8.8 µM; in the experiment on CEM-DNR it was 35.9 µM; in the experiment with HCT-116, 25.3 µM; in experiment [1] it was 26.8 µM; in the experiment on K562 it was 23.6 µM; in experiment [2] it was 32.8 µM. Moreover, the IC50 in the experiment with A549 is 33.1 µM; in the experiment with U2OS, 27.6 µM; in the experiment on BJ it was over 50 µM; in the experiment on MRC5, over 50 µM.
Regarding `C=C(/C=C/c1ccc(Cl)cc1)[C@@H]1CC[C@]2(C(=O)O)CC[C@]3(C)[C@H](CC[C@@H]4[C@@]5(C)CC[C@H](O)C(C)(C)[C@@H]5CC[C@]43C)[C@@H]12`, the IC50 in the experiment on CCRF-CEM came to 5.4 µM; in the experiment on CEM-DNR, 33.1 µM; in the experiment with HCT-116, 39.5 µM; in experiment [1], 38.5 µM; with K562 it was 46.3 µM; in experiment [2] it was 29.2 µM. Also, the IC50 is 45.4 µM in the experiment on A549, 25.8 µM in the experiment on U2OS, over 50 µM with BJ and over 50 µM in the experiment on MRC5.
With `C=C(/C=C/c1ccc(C(C)(C)C)cc1)[C@@H]1CC[C@]2(C(=O)O)CC[C@]3(C)[C@H](CC[C@@H]4[C@@]5(C)CC[C@H](O)C(C)(C)[C@@H]5CC[C@]43C)[C@@H]12`, the IC50 in the experiment on CCRF-CEM was 45.6 µM; in the experiment with CEM-DNR, over 50 µM; with HCT-116, over 50 µM; in experiment [1] it was over 50 µM; in the experiment on K562, over 50 µM; in [2] it was over 50 µM. Also, the concentration for half-maximal inhibition (IC50) in the experiment on A549 is over 50 µM; in the experiment with U2OS it was 45.1 µM; in the experiment on BJ, over 50 µM; in the experiment with MRC5 it was over 50 µM.
With `C=C(/C=C/c1cccc(C(=O)O)c1)[C@@H]1CC[C@]2(C(=O)O)CC[C@]3(C)[C@H](CC[C@@H]4[C@@]5(C)CC[C@H](O)C(C)(C)[C@@H]5CC[C@]43C)[C@@H]12`, the half-maximal inhibitory concentration (IC50) in the experiment on CCRF-CEM is 20.1 µM; with CEM-DNR, 33.9 µM; with HCT-116, 43.4 µM; in experiment [1], 43.1 µM; in the experiment with K562, over 50 µM; in experiment [2], 36.7 µM. In addition, the 50% inhibitory concentration (IC50) in the experiment on A549, with U2OS, in the experiment with BJ and with MRC5 was over 50 µM each time.
Consider `C=C(/C=C/c1cccnc1)[C@@H]1CC[C@]2(C(=O)O)CC[C@]3(C)[C@H](CC[C@@H]4[C@@]5(C)CC[C@H](O)C(C)(C)[C@@H]5CC[C@]43C)[C@@H]12`, for which the concentration for half-maximal inhibition (IC50) in the experiment on CCRF-CEM was 11.3 µM; in the experiment on CEM-DNR, 17.4 µM; with HCT-116, 30.9 µM; in experiment [1], 32.8 µM; in the experiment on K562, over 50 µM; in experiment [2], 14.2 µM. Also, the IC50 in the experiment on A549 was 26.2 µM; in the experiment on U2OS, 30.9 µM; in the experiment with BJ, over 50 µM; with MRC5, over 50 µM.
With `C=C(/C=C/c1ccccc1C#N)[C@@H]1CC[C@]2(C(=O)O)CC[C@]3(C)[C@H](CC[C@@H]4[C@@]5(C)CC[C@H](O)C(C)(C)[C@@H]5CC[C@]43C)[C@@H]12`, the 50% inhibitory concentration (IC50) is 23.2 µM with CCRF-CEM; 26.8 µM with CEM-DNR; 36.6 µM in the experiment on HCT-116; 47 µM in experiment [1]; over 50 µM in the experiment with K562; 24.8 µM in experiment [2]. In addition, the IC50 with A549 was over 50 µM; in the experiment on U2OS, 40.4 µM; in the experiment on BJ, over 50 µM; with MRC5, over 50 µM.
For the compound `C=C(/C=C/c1ccccc1C)[C@@H]1CC[C@]2(C(=O)O)CC[C@]3(C)[C@H](CC[C@@H]4[C@@]5(C)CC[C@H](O)C(C)(C)[C@@H]5CC[C@]43C)[C@@H]12`, the IC50 was determined as 19.1 µM in the experiment on CCRF-CEM; 22.8 µM in the experiment with CEM-DNR; 29.7 µM in the experiment on HCT-116; 25.9 µM in experiment [1]; 28.1 µM in the experiment on K562; 25.9 µM in experiment [2]. Moreover, the IC50 in the experiment on A549 is 26.8 µM; in the experiment with U2OS, 28 µM; with BJ, 33 µM; with MRC5, 31.5 µM.
Consider `C=C(/C=C/c1ccc(OC)cc1)[C@@H]1CC[C@]2(C(=O)O)CC[C@]3(C)[C@H](CC[C@@H]4[C@@]5(C)CC[C@H](O)C(C)(C)[C@@H]5CC[C@]43C)[C@@H]12`, for which the IC50 in the experiment with CCRF-CEM was 20.9 µM; in the experiment on CEM-DNR, over 50 µM; in the experiment on HCT-116, 42.4 µM; in experiment [1], 48.9 µM; with K562, over 50 µM; in experiment [2], 48.6 µM. In addition, the IC50 in the experiment with A549 is over 50 µM; with U2OS, 48.6 µM; with BJ, over 50 µM; in the experiment with MRC5, over 50 µM.
Regarding `C=C(/C=C/c1ccccc1Cl)[C@@H]1CC[C@]2(C(=O)O)CC[C@]3(C)[C@H](CC[C@@H]4[C@@]5(C)CC[C@H](O)C(C)(C)[C@@H]5CC[C@]43C)[C@@H]12`, the IC50 with CCRF-CEM is 18.7 µM; in the experiment on CEM-DNR, 42.1 µM; in the experiment on HCT-116 it was 26.6 µM; in [1] it was 24.8 µM; in the experiment on K562 it was 23.9 µM; in experiment [2], 39.3 µM. The half-inhibitory concentration (IC50) with A549 was 29.4 µM; in the experiment with U2OS, 28.1 µM; in the experiment with BJ, 42.3 µM; in the experiment on MRC5 it was 32.6 µM.
With `C=C(/C=C/c1ccccc1)[C@@H]1CC[C@]2(C(=O)O)CC[C@]3(C)[C@H](CC[C@@H]4[C@@]5(C)CC[C@H](O)C(C)(C)[C@@H]5CC[C@]43C)[C@@H]12`, the half-inhibitory concentration (IC50) with CCRF-CEM worked out at 6.5 µM; in the experiment on CEM-DNR, 30.2 µM; in the experiment on HCT-116, 35.5 µM; in experiment [1], 39.5 µM; in the experiment with K562 it was 40 µM; in experiment [2], 25.3 µM. Moreover, the half-inhibitory concentration (IC50) is 41.8 µM in the experiment on A549, 24.2 µM with U2OS, over 50 µM in the experiment on BJ and over 50 µM with MRC5.
Turning to `C=C(/C=C/c1ccccn1)[C@@H]1CC[C@]2(C(=O)O)CC[C@]3(C)[C@H](CC[C@@H]4[C@@]5(C)CC[C@H](O)C(C)(C)[C@@H]5CC[C@]43C)[C@@H]12`, the 50% inhibitory concentration (IC50) with CCRF-CEM is 19.7 µM; in the experiment with CEM-DNR, 27.7 µM; in the experiment on HCT-116, over 50 µM; in experiment [1] it was over 50 µM; in the experiment with K562, over 50 µM; in [2], 29.2 µM. In addition, the IC50 in the experiment on A549, in the experiment on U2OS, with BJ and in the experiment with MRC5 was over 50 µM in each case.
Regarding `C=C(/C=C/c1ccc(F)cc1)[C@@H]1CC[C@]2(C(=O)O)CC[C@]3(C)[C@H](CC[C@@H]4[C@@]5(C)CC[C@H](O)C(C)(C)[C@@H]5CC[C@]43C)[C@@H]12`, the 50% inhibitory concentration (IC50) in the experiment with CCRF-CEM was determined as 4.9 µM; in the experiment on CEM-DNR, 31.4 µM; in the experiment with HCT-116, 35.4 µM; in [1] it was 41 µM; with K562 it was 36.2 µM; in [2], 29.8 µM. Moreover, the IC50 in the experiment with A549 stood at 40.6 µM; in the experiment on U2OS it was 23.9 µM; in the experiment with BJ it was 44.6 µM; in the experiment with MRC5 it was 38.3 µM.
On to `C=C(C=O)[C@@H]1CC[C@]2(C(=O)O)CC[C@]3(C)[C@H](CC[C@@H]4[C@@]5(C)CC[C@H](O)C(C)(C)[C@@H]5CC[C@]43C)[C@@H]12`, for which the IC50 came to 0.8 µM in the experiment on CCRF-CEM; 3.8 µM with CEM-DNR; 1.9 µM in the experiment on HCT-116; 1.9 µM in [1]; 3.4 µM in the experiment with K562; 1.3 µM in experiment [2]. Besides, the 50% inhibitory concentration (IC50) in the experiment on A549 was over 50 µM; in the experiment on U2OS it was 1.3 µM; in the experiment with BJ it was 6.7 µM; in the experiment with MRC5 it was 2.6 µM.
Turning to `C=C(/C=C/c1ccc(Br)cc1F)[C@@H]1CC[C@]2(C(=O)O)CC[C@]3(C)[C@H](CC[C@@H]4[C@@]5(C)CC[C@H](O)C(C)(C)[C@@H]5CC[C@]43C)[C@@H]12`, the IC50 in the experiment on CCRF-CEM was 22.4 µM; with CEM-DNR, over 50 µM; in the experiment with HCT-116, 33.5 µM; in experiment [1], 33.6 µM; in the experiment with K562, 26 µM; in experiment [2], over 50 µM. In addition, the concentration for half-maximal inhibition (IC50) is 32.5 µM in the experiment on A549, 29.7 µM with U2OS, 43 µM in the experiment with BJ and 33.7 µM with MRC5.
